Reference: patent US20110172163A1, “Novel Protease Inhibitors” (QUEENSLAND UNIVERSITY OF TECHNOLOGY, priority 2008, published 2011)
“Also recorded” adds a separate entry of the source. Where two headings read alike, the source gives them in different places. Bridge positions count the residues as written; N and C are the ends. Peptide text beside a SMILES is read from it.

Columns and labels:
bovine thrombin = molecular target: T1, bovine thrombin (Bos taurus, UniProt P00735); assay: Inhibitor kinetics: thrombin amidolytic activity; type: biochemical; settings: substrate Bz-FVR-pNA (0.2 mM)
T1 construct: purchased Sigma Chemicals
Protocol: (§1) All enzymes and substrates were obtained from Sigma Chemicals if not otherwise specified. […] The release of pNa moiety was monitored as described above for 7 minutes with each point being the average of three independent triplicate reactions. IC50 was determined using the Prism 5 software suite (GraphPad software Inc.).

bovine α-chymotrypsin = molecular target: T2, bovine α-chymotrypsin (Bos taurus, UniProt P00766); assay: Inhibitor kinetics: α-chymotrypsin amidolytic activity; type: biochemical; settings: substrate W-pNA (0.2 mM)
T2 construct: purchased Sigma Chemicals
Protocol: as §1

bovine β trypsin = assay: Trypsin stimulated calcium release in LMF stably expressing human PAR-2; type: cell-based; settings: 1 μM SFTI-FCQR, trypsin 10 nM
Protocol: Lung murine fibroblasts (LMF) from Par-1 null mice stably expressing human PAR-2 were grown to 80% confluence as previously described, washed with PBS, detached nonenzymatically, resuspended (4×10^6 cells/ml) in extracellular medium (121 mM NaCl, 5.4 mM KCl, 0.8 mM MgCl2, 1.8 mM CaCl2, 5.5 mM glucose, 25 mM HEPES (pH 7.4)) containing 0.2% (w/v) bovine serum albumin (Sigma) and then loaded with the fluorescence indicator Fura-2 acetoxymethyl ester (1.0 μM; Invitrogen) at room temperature for 60 min. Cells were then pelleted followed by resuspension in extracellular medium (without bovine serum albumin) at a concentration of 2×10^6 cells/ml for fluorescence measurements. The ratio of fluorescence at 510 nm after excitation at 340 and 380 nm was monitored (Polarstar Optima fluorescent plate reader) during treatment with bovine β trypsin (Sigma Chemicals), PAR-2 activating peptide SLIGKV (AusPep) and iKLK4 with or without SFTI-FCQR.

KLK4 = KLK4 (Homo sapiens, UniProt Q9Y5K2); assay: Protein proteolysis: fibrinogen digestion by KLK4 (SDS-PAGE); type: biochemical; design: pro-region of PSA (KLK3), replacing the native KLK4 pro-region (only if the E. coli preparation was used) (N, cleaved yes); made in house; settings: 2.5 nM KLK4, SDS-PAGE
Chain of KLK4 (Q9Y5K2 31-254): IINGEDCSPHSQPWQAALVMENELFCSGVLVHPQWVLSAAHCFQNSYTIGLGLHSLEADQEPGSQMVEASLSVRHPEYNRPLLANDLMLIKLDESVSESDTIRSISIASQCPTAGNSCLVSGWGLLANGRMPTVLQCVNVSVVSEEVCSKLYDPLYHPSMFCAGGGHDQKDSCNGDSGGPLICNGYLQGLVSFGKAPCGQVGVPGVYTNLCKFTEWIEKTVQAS
Protocol: Fibrinogen was solubilised in assay buffer to a final concentration of 1 mg/ml and digested with KLK4 (+/−inhibitor) over a period of 90 minutes at 37° C. Typically assays consisted of 5 μM protein substrate and 2.5 nM KLK4 protein or 1 nM trypsin made up to a final volume of 8 μl with assay buffer. Proteolysis was initiated by addition of KLK4 and terminated by addition of SDS PAGE sample buffer and heat denaturation at 100° C. for 5 minutes. Hydrolysis products were resolved on 10% SDS PAGE gels and compared with incubations terminated immediately after initiation (time 0), and substrate proteins incubated in assay buffer for 90 minutes in the absence of KLK4 or 4-16 mins with trypsin.

iKLK14 = molecular target: T3, iKLK14 (Homo sapiens, UniProt Q9P0G3); assay: Inhibitor kinetics: KLK14 amidolytic activity; type: biochemical
T3 construct: made in house
T3 sequence (Q9P0G3 41-267): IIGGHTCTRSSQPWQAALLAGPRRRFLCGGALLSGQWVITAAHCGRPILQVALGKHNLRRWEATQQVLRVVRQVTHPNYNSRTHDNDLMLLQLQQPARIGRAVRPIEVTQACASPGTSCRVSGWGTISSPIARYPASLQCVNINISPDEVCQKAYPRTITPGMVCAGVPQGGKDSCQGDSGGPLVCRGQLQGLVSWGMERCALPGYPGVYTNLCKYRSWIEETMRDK

human matriptase = molecular target: T4, human matriptase (Homo sapiens, UniProt Q9Y5Y6); assay: Inhibitor kinetics: matriptase amidolytic activity; type: biochemical; settings: substrate Bz-FVR-pNA (0.2 mM)
T4 construct: purchased R&D Systems
T4 sequence (Q9Y5Y6 615-855 limits assumed): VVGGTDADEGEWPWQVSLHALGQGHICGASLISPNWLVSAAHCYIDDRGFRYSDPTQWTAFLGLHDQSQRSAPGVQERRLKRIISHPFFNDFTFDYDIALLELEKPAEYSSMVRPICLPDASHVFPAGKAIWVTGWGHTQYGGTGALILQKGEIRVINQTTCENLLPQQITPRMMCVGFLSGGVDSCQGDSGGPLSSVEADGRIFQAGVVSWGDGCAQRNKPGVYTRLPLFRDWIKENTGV
Protocol: as §1

KLK12 = KLK12 (Homo sapiens, UniProt Q9UKR0); assay: Protein proteolysis: fibrinogen digestion by KLK12; type: biochemical; settings: up to a concentration of 2 μM
Chain of KLK12 (Q9UKR0 18-248): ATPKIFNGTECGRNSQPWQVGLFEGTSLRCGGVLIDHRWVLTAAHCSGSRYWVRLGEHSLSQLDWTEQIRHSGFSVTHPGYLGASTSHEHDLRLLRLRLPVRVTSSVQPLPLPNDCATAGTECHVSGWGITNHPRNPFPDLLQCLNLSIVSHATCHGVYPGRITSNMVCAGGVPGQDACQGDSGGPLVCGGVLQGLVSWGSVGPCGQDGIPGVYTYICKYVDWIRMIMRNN

bovine plasminogen = molecular target: T5, bovine plasminogen (Bos taurus, UniProt P06868); assay: Inhibitor kinetics: plasminogen amidolytic activity; type: biochemical; settings: substrate L-pNA, BAPNA (0.2 mM)
T5 construct: purchased Sigma Chemicals; host or cells: bovine plasma
T5 sequence (P06868 27-812 limits assumed): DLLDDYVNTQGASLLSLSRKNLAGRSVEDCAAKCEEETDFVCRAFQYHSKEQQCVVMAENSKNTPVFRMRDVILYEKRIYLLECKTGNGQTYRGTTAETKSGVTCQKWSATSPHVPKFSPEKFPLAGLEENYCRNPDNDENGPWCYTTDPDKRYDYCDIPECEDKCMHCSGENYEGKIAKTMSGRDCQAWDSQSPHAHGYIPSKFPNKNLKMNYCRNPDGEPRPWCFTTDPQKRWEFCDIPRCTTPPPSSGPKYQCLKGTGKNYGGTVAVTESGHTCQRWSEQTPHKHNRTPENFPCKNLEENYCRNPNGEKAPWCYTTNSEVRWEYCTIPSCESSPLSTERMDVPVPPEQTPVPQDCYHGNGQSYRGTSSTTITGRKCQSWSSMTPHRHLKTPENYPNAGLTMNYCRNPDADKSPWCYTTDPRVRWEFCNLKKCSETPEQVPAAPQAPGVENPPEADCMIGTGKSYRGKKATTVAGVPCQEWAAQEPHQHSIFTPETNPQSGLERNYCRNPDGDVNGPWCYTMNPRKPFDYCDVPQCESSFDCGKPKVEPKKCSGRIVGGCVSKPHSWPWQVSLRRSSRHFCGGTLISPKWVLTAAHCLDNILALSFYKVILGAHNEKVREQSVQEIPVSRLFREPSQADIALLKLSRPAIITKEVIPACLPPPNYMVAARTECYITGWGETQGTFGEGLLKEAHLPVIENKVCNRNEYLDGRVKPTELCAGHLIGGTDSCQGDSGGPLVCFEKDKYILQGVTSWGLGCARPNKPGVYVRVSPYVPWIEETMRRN
Protocol: as §1

KLK14 = KLK14 (Homo sapiens, UniProt Q9P0G3); assay: Protein proteolysis: fibrinogen digestion by KLK14; type: biochemical; settings: up to a concentration of 2 μM
Chain of KLK14 (Q9P0G3 35-267 limits assumed): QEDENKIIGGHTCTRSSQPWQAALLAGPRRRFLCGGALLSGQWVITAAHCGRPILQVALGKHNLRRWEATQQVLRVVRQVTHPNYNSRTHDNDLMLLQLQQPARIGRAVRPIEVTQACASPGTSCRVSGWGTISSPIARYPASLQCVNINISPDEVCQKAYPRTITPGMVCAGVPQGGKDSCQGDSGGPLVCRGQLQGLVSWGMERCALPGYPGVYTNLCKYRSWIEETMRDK

KLK2 = KLK2 (Homo sapiens, UniProt P20151); assay: Protein proteolysis: fibrinogen digestion by KLK2; type: biochemical; settings: up to a concentration of 2 μM
Chain of KLK2 (P20151 25-261): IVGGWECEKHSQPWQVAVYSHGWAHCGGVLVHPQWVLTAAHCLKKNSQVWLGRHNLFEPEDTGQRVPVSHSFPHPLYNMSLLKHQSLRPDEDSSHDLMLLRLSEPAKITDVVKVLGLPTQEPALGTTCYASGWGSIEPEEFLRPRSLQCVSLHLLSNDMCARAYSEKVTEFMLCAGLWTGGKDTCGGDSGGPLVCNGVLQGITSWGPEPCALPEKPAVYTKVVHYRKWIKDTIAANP

KLK5 = KLK5 (Homo sapiens, UniProt Q9Y337); assay: Protein proteolysis: fibrinogen digestion by KLK5; type: biochemical; settings: up to a concentration of 2 μM
Chain of KLK5 (Q9Y337 23-293): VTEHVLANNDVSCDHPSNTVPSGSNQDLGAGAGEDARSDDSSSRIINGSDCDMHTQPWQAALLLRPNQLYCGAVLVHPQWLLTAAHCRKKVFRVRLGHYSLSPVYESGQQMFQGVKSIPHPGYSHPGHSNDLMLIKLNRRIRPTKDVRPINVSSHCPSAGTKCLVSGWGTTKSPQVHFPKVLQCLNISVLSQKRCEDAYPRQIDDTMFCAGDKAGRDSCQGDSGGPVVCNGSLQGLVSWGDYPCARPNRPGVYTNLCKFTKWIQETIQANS

Compound: CC[C@H](C)[C@@H]1NC(=O)[C@@H]2CCCN2C(=O)[C@@H]2CCCN2C(=O)[C@H]([C@@H](C)CC)NC(=O)[C@H](CO)NC(=O)[C@H](CCCNC(=N)N)NC(=O)[C@H](CCC(N)=O)NC(=O)[C@@H]2CSSC[C@H](NC1=O)C(=O)N[C@@H](Cc1ccccc1)C(=O)N1CCC[C@H]1C(=O)N[C@@H](CC(=O)O)C(=O)NCC(=O)N[C@@H](Cc1ccccc1)C(=O)N2 [SFTI-FCQR] (cyclo(GFCQRSIPPICFPD); disulfide 3-11)
- IC50 (bovine thrombin): did not inhibit
- IC50 (bovine thrombin; read-out: IC50): > 10 µM
- IC50 (bovine α-chymotrypsin): did not inhibit
- IC50 (bovine α-chymotrypsin; read-out: IC50): > 10 µM
- effect on trypsin stimulated calcium release (bovine β trypsin): permissive for calcium release; also recorded: no effect; also recorded: increased intracellular Ca^2+ ion concentration
- concentration giving complete inhibition of fibrinogen proteolysis by KLK4 (KLK4): 250 nM
- IC50 (iKLK14): 1.51 ± 0.0371 µM
- IC50 (human matriptase): did not inhibit
- IC50 (human matriptase; read-out: IC50): > 10 µM
- inhibition of KLK12 digestion of fibrinogen (KLK12): no inhibition
- IC50 (bovine plasminogen): did not inhibit
- IC50 (bovine plasminogen; read-out: IC50): > 10 µM
- inhibition of KLK14 digestion of fibrinogen (KLK14): no inhibition
- inhibition of KLK2 digestion of fibrinogen (KLK2): no inhibition
- inhibition of KLK5 digestion of fibrinogen (KLK5): no inhibition
